The subject of series [1] is antiserum RY725 (Rabbit antiserum obtained in Example 1-(1)). Kind of series: ELISA system for 17β-estradiol with biotinylated estradiol derivative 2 as labeled compound (standard curve, cross-reactivity test). To be noted: relative to 17β-estradiol (calculated as 100%), labeled compound biotinylated estradiol derivative 2. In kind it is binding. As for the experimental part:
(1) An ELISA system for 17β-estradiol using the derivative of the invention as a labeled compound was prepared in the following manner.
(a) 100 μL of a standard solution or a sample is pipetted into each well of the 96-well plate, followed by addition of 50 μL of the labeled compound (0.2 ng/mL) comprising the biotinylated estradiol derivative of the invention and 50 μL of the antiserum (×32000);
(b) the reaction is allowed to proceed at 4° C. overnight (for 18-20 hours);
(§1) (c) all the wells are washed with the wash solution 4 times;
(d) the reaction is allowed to proceed using a microplate shaker at room temperature for 2 hours;
(e) all the wells are washed with the wash solution 4 times;
(f) […] of the substrate is added;
(g) the reaction is allowed to proceed at room temperature for 20 minutes;
(h) 100 μL of the enzyme reaction stop solution is pipetted into each well;
(i) absorbance at 450 nm is measured with a microplate autoreader.
The specifity of the 17β-estradiol ELISA system was assessed in the following manner.

In series [2] the test system is antiserum RY469 (Rabbit antiserum prepared in Example 1-(2)). Kind of series: ELISA system for estrone with biotinylated estradiol derivative 1 as labeled compound (standard curve, cross-reactivity test). Type of series: binding. To be noted: relative to estrone (calculated as 100%), labeled compound biotinylated estradiol derivative 1. As for the experimental part:
(2) An ELISA system for estrone using the derivative of the invention as a labeled compound was designed in the following manner.
Biotinylated estradiol derivative 1 of the invention
RY469 (Rabbit antiserum prepared in Example 1-(2)
(a) 100 μL of a standard solution or a sample is pipetted into each well of the 96-well plate, followed by addition of 50 μL of the labeled compound (0.25 ng/mL) comprising the biotinylated estradiol derivative of the invention and 50 μL of the antiserum (×32000);
(b) the reaction is allowed to proceed using a microplate shaker at room temperature for 5 hours;
as §1
(d) 100 μL of the HRP-labeled reagent (×5000) is added;
(e) the reaction is allowed to proceed using a microplate shaker at room temperature for 1 hour;
(f) all the wells are washed with the wash solution 4 times;
(g) 100 μL of the substrate is added;
(h) the reaction is allowed to proceed at 20° C. for 20 minutes;
(i) 100 μL of the enzyme reaction stop solution is pipetted into each well;
(j) absorbance at 450 nm is measured with a microplate autoreader.
The specifity of the estrone ELISA system was assessed in the following manner.
ELISA was repeated in a similar manner as in Example 3-(2) except that the estrogens shown in Table 2 were used in place of the standard estrone (Sigma Co.). The standard curve of each of the estrogens was obtained (see FIG. 6).

The conditions of series [3]: general statement on prior art; cited from earlier work.

Bounds are passed on as bounds.

As for `C[C@]12CCC(=O)C=C1CC[C@@H]1[C@@H]2CC[C@]2(C)C(=O)CC[C@@H]12` [(+)-4-Androsteron-3,17-dione], in series [1], the “Cross-reactivity (%)” value is given as 0.02%.

On to `C[C@]12CCC3c4ccc(OS(=O)(=O)O)cc4CCC3C1CC[C@@H]2OS(=O)(=O)O` (stereo partly drawn) [β-Estradiol 3,7-disulfate], for which, in series [1], the “Cross-reactivity (%)” value is 0.00%. Take `C[C@]12CC[C@@H]3c4ccc(O)cc4CC[C@H]3[C@@H]1CC[C@@H]2O[C@@H]1O[C@H](C(=O)O)[C@@H](O)[C@H](O)[C@H]1O` [β-Estradiol 17-(β-D-glucronide)]: the “Cross-reactivity (%)” value in series [1] is 0.00%.

Take `C[C@]12CC[C@@H]3c4ccc(O[C@@H]5O[C@H](C(=O)O)[C@@H](O)[C@H](O)[C@H]5O)cc4CC[C@H]3[C@@H]1CC[C@@H]2O` [β-Estradiol 3-(β-D-glucronide)]: the “Cross-reactivity (%)” value in series [1] was 37.44%. Same read-out and setting: then `COc1cc2c(cc1O)CC[C@@H]1[C@@H]2CC[C@]2(C)[C@@H](O)CC[C@@H]12` [2-Methoxyestradiol], with 1.79%. As to `CC(C)(c1ccc(O)cc1)c1ccc(O)cc1` [Bisphenol A], in series [2], the “Cross-reactivity (%)” value was less than 0.001%. With `C[C@]12CC[C@H]3[C@@H](CCC4=CC(=O)CC[C@@]43C)[C@@H]1CC[C@@H]2O` [Testosterone], the “Cross-reactivity (%)” value in series [1] is 0.28%. Same read-out and setting: the figure for `C#C[C@]1(O)CC[C@H]2[C@@H]3CCc4cc(OC)ccc4[C@H]3CC[C@@]21C` [Mestranol] is 0.14%. `C[C@]12CC[C@@H]3c4ccc(O)cc4CC[C@H]3[C@@H]1CC[C@@H]2O` [17β-Estradiol]: the “Cross-reactivity (%)” value in series [1] is 100.00%; in series [2] it was 33.33%. As to `O=C(O[C@@H]1Cc2c(O)cc(O)cc2O[C@@H]1c1ccc(O)c(O)c1)c1cc(O)c(O)c(O)c1` [Epicatechin gallate], the “Cross-reactivity (%)” value in series [2] is recorded as less than 0.001%. Regarding β-Estradiol 3-sulfate, the “Cross-reactivity (%)” value in series [1] is listed as 11.05%. Still for that read-out and setting: the figure for `CC[C@H](c1ccc(O)cc1)[C@@H](CC)c1ccc(O)cc1` [Hexestrol] is 0.00%. For the molecule Catechin, in series [2], the “Cross-reactivity (%)” value is listed as less than 0.001%. For the molecule `CC12CCC3c4ccc(OC5OC(C(=O)O)C(O)C(O)C5O)cc4CCC3C1CCC2OS(=O)(=O)O` (stereo not drawn) [β-Estradiol 3-glucronide 17-sulfate], in series [1], the “Cross-reactivity (%)” value is 0.02%. Same read-out and setting: the figure for `C[C@]12CC[C@@H]3c4ccc(OS(=O)(=O)O)cc4CC[C@H]3[C@@H]1CC[C@@H]2O[C@@H]1O[C@H](C(=O)O)[C@@H](O)[C@H](O)[C@H]1O` [β-Estradiol 3-sulfate 17-glucronide] is 0.00%. Same read-out and setting: then `C[C@]12CCC(=O)C=C1CC[C@@H]1[C@@H]2[C@@H](O)C[C@]2(C=O)[C@@H](C(=O)CO)CC[C@@H]12` [d-ALDOSTERONE], with 0.00%; and `CC(=O)[C@H]1CC[C@H]2[C@@H]3CCC4=CC(=O)CC[C@]4(C)[C@H]3CC[C@]12C` [Progesteron], with 0.01%.

As to Nonylphenol, the “Cross-reactivity (%)” value in series [2] was less than 0.001%. As to `C[C@]12CC[C@@H]3c4ccc(O)cc4CC[C@H]3[C@@H]1C[C@@H](O)[C@@H]2O` [Estriol], the “Cross-reactivity (%)” value is reported as 0.16% in series [1] and 0.15% in series [2].

With `C#C[C@]1(O)CC[C@H]2[C@@H]3CCc4cc(O)ccc4[C@H]3CC[C@@]21C` [Ethynylestradiol], the “Cross-reactivity (%)” value in series [1] is given as 0.03%.

For the molecule `O=C(O)CCCC[C@@H]1SC[C@@H]2NC(=O)N[C@@H]21` [biotin], in series [3], the solubility in water entry is recorded as “minimally soluble in water”.

The values above are taken from patent publication US20020028929A1, “Estradiol derivative and immunoassay using the same” (priority 2000, published 2002).
